In article PMC9950431, “A bivalent remipede toxin promotes calcium release via ryanodine receptor activation” (Nature Communications, 2023):

Tests used:
RyR2 = test: Washout (reversibility/avidity) single channel experiments, RyR2; type: biochemical, sheep (cardiac SR); conditions: 10 nM and 1 μM
Procedure: Cardiac SR was prepared from mature female crossbred sheep hearts, and skeletal SR vesicles were isolated from the back and leg muscles of mature female New Zealand white rabbits[29],[54] with approval from the ANU Animal Experiment Ethics Committee Protocol Number A2015/35. […] Solutions for vesicle incorporation contained (mM): cis 230 caesium methanesulfonate (CsMS); 20 CsCl; 1 CaCl2 and 10 […] (TES) pH 7.4 and trans 30 CsMS; 20 CsCl; 1 CaCl2 10 TES; pH 7.4. SR vesicles routinely incorporated with the cytoplasmic surface of the SR and RyR facing the cis chamber. Following incorporation, 200 mM CsMS was added to the trans solution and the cis solution exchanged with recording solution containing (mM): 230 CsMS; 20 CsCl; 0.001 CaCl2;10 TES and pH 7.4, with [Ca^2+] set by a [BAPTA] determined using a Ca^2+ electrode. […] Electrophysiology experiments were analysed using Channel 2 (P.W. Gage, M. Smith, Australian National University) and Channel 3 (N.W. Laver, University of Newcastle, Australia) software, available from the authors upon request. […] Following most incorporation events, a single channel only was active in the bilayer and channel open probability (Po), mean open time (To), mean closed time (Tc) and open event frequency (Fo) were measured. […] In all experiments control channel activity was recorded for 3 to 5 min before exposure to the test compound. […]

α7 nAChR = test: FLIPR Ca2+ assay, inhibition of endogenous α7 nAChR; type: cell-based, human; conditions: for Ca2+ response relative to control response: 3 µM Xt3a pre-treatment, choline 30 μM/PNU-120596 10 μM, over 300 s
Procedure: SH-SY5Y human neuroblastoma cells (European Collection of Authenticated Cell Culture, Sigma Aldrich, 94030304-1VL) were cultured in RPMI media (ThermoFisher Scientific, Scoresby, Australia) supplemented with 15% foetal bovine serum and L-glutamine (1 mM) and passaged at approximately 80% confluency with TrypLE Express (Thermo Fisher, Australia). For fluorescence imaging, cells were plated on CellBIND (Corning) 384-well black-walled imaging plates at a density of 20,000–30,000 cells/well in complete media and cultured for 48 h at 37 °C/5% CO2.
Briefly, SH-SY5Y cells were loaded with Calcium 4 no-wash dye (Molecular Devices) diluted in physiological salt solution (composition in mM: NaCl 140, D-glucose 11.5, KCl 5.9, MgCl2 1.4, NaH2PO4 1.2, NaHCO3 5, CaCl2 1.8, HEPES 10) for 30 min at 37 °C. A two-addition FLIPR^Tetra (Molecular Devices) protocol using the following settings was used to measure fluorescence responses: excitation 470–495 nm; emission 515–575 nm; excitation intensity 80%; excitation duration 0.8 s; gain 140; read interval 1/s; read number 300/addition. Responses mediated via endogenously expressed ion channels were elicited by addition of: choline (30 μM)/PNU-120596 (10 μM) for α7 nAChR-mediated responses; nicotine (30 μM) for α3β2/α3β4 nAChR-mediated responses; KCl (90 mM)/CaCl2 (5 mM) for CaV1.3-mediated responses; KCl (90 mM)/CaCl2 (5 mM) + nifedipine (10 μM) for CaV2.2-mediated responses; vertridine (70 μM) for NaV1.2-mediated responses; and veratridine (4 μM)/OD1 (300 nM) for NaV1.7-mediated responses. Raw fluorescence readings were converted to response over baseline using the analysis tool Screenworks 3.1.1.4 (Molecular Devices) and were expressed relative to the maximum increase in fluorescence of control responses and plotted using GraphPad Prism 9.3.1.
In the cell-based FLIPR assays statistical analysis was performed using GraphPad Prism 9.3.1. Statistical significance was defined as p < 0.05, and determined by one-sample t-test assessing difference to the control value of 100%. In α7 nAChR, α3-containing nAChR, CaV1.3, CaV2.2, NaV1.2 and NaV1.7 channels (Supplementary Fig. 5B), with distribution (t) and degrees of freedom (df) being: t = 0.9683, df = 2 (α7); t = 1.338, df = 2 (α3); t = 1.775, df = 2 (NaV1.2); t = 1.478

For φ-Xibalbin3-Xt3a, the “channel activity during washout” value (RyR2) was “activity did appear to increase somewhat during washout”, the “Ca2+ response relative to control response” value (α7 nAChR; replicate 1) was 99.1155% and the “Ca2+ response relative to control response” value (α7 nAChR; replicate 2) was 100.788%. The “Ca2+ response relative to control response” value (α7 nAChR; replicate 3) was 96.222% and the “inhibition of Ca2+ responses” value (α7 nAChR; Xt3a 3 µM) was “did not inhibit Ca^2+ responses”.
